Reference: PubChem BioAssay (NCI)
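Each compound was tested at five concentrations against cells in 96-well plates for 48 hours. The concentration for full growth arrest is given as TGI.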

Key:
Assay in all cases: NCI-60 cell line screen, 48 h
[1] = tested on: OVCAR-5 ovarian
[2] = tested on: DMS 273 small cell lung
[3] = tested on: CCRF-CEM leukemia
[4] = tested on: K-562 leukemia
[5] = tested on: HCC-2998 colon
[6] = tested on: HOP-92 NSCLC
[7] = tested on: UACC-62 melanoma
[8] = tested on: NCI-H226 lung
[9] = tested on: UACC-257 melanoma
[10] = tested on: MOLT-4 leukemia
[11] = tested on: ACHN renal
[12] = tested on: NCI-H522 lung
[13] = tested on: CAKI-1 renal
[14] = tested on: HCT-116 colon
[15] = tested on: SW-620 colon
[16] = tested on: UO-31 renal
[17] = tested on: OVCAR-8 ovarian
[18] = tested on: KM20L2 colon
[19] = tested on: OVCAR-4 ovarian
[20] = tested on: HT29 colon
[21] = tested on: OVCAR-3 ovarian
[22] = tested on: SF-268 CNS
[23] = tested on: HOP-62 NSCLC
[24] = tested on: RPMI-8226 leukemia
[25] = tested on: SR leukemia
[26] = tested on: HOP-18 NSCLC
[27] = tested on: DMS 114 small cell lung
[28] = tested on: DLD-1 colon
[29] = tested on: SF-295 CNS
[30] = tested on: SNB-75 CNS
[31] = tested on: COLO 205 colon
[32] = tested on: SNB-19 CNS
[33] = tested on: SK-MEL-28 melanoma
[34] = tested on: SK-MEL-5 melanoma
[35] = tested on: SN12C renal
[36] = tested on: IGROV1 ovarian
[37] = tested on: A549 NSCLC
[38] = tested on: NCI-H23 lung
[39] = tested on: SK-OV-3 ovarian
[40] = tested on: SF-539 CNS
[41] = tested on: MALME-3M melanoma
[42] = tested on: LOX IMVI melanoma
[43] = tested on: RXF 393 renal
[44] = tested on: U251 CNS
[45] = tested on: NCI-H460 lung
[46] = tested on: HL-60(TB) leukemia
[47] = tested on: 786-0 renal
[48] = tested on: LXFL 529 NSCLC
[49] = tested on: KM12 colon
[50] = tested on: TK-10 renal
[51] = tested on: SK-MEL-2 melanoma
[52] = tested on: M19-MEL melanoma
[53] = tested on: SNB-78 CNS
[54] = tested on: EKVX NSCLC
[55] = tested on: M14 melanoma
[56] = tested on: T-47D breast
[57] = tested on: DU-145 prostate
[58] = tested on: A498 renal
[59] = tested on: HCT-15 colon
[60] = tested on: HS 578T breast
[61] = tested on: PC-3 prostate
[62] = tested on: MDA-N
[63] = tested on: BT-549 breast
[64] = tested on: MDA-MB-231 breast
[65] = tested on: MCF7 breast
[66] = tested on: NCI/ADR-RES ovarian
[67] = tested on: MDA-MB-435

## C=Cc1ccc(C)[n+](C[Si](C)(C)O[Si](C)(C)C[n+]2cc(C=C)ccc2C)c1
[1]
  TGI: > 100 µM
[2]
  TGI: > 100 µM
[3]
  TGI: > 100 µM
[4]
  TGI: > 100 µM
[5]
  TGI: > 100 µM
[6]
  TGI: > 100 µM
[7]
  TGI: > 100 µM
[8]
  TGI: > 100 µM
[9]
  TGI: > 100 µM
[10]
  TGI: > 100 µM
[11]
  TGI: > 100 µM
[12]
  TGI: > 100 µM
[13]
  TGI: > 100 µM
[14]
  TGI: > 100 µM
[15]
  TGI: > 100 µM
[16]
  TGI: > 100 µM
[17]
  TGI: > 100 µM
[18]
  TGI: > 100 µM
[19]
  TGI: > 100 µM
[20]
  TGI: > 100 µM
[21]
  TGI: > 100 µM
[22]
  TGI: > 100 µM
[23]
  TGI: > 100 µM
[24]
  TGI: > 100 µM
[25]
  TGI: > 100 µM
[26]
  TGI: > 100 µM
[27]
  TGI: > 100 µM
[28]
  TGI: > 100 µM
[29]
  TGI: > 100 µM
[30]
  TGI: > 100 µM
[31]
  TGI: > 100 µM
[32]
  TGI: > 100 µM
[33]
  TGI: > 100 µM
[34]
  TGI: > 100 µM
[35]
  TGI: > 100 µM
[36]
  TGI: > 100 µM
[37]
  TGI: > 100 µM
[38]
  TGI: > 100 µM
[39]
  TGI: > 100 µM
[40]
  TGI: > 100 µM
[41]
  TGI: > 100 µM
[42]
  TGI: > 100 µM
[43]
  TGI: > 100 µM
[44]
  TGI: > 100 µM
[45]
  TGI: > 100 µM
[46]
  TGI: > 100 µM
[47]
  TGI: > 100 µM
[48]
  TGI: > 100 µM
[49]
  TGI: > 100 µM
[50]
  TGI: > 100 µM
[51]
  TGI: > 100 µM
[52]
  TGI: > 100 µM
[53]
  TGI: > 100 µM
[54]
  TGI: > 100 µM
[55]
  TGI: > 100 µM

## c1csc(-c2ccc(-c3cccs3)c3nsnc23)c1
[1]
  TGI: > 100 µM
[3]
  TGI: 31.5 µM
[4]
  TGI: 37.9 µM
[5]
  TGI: > 100 µM
[6]
  TGI: > 100 µM
[56]
  TGI: 1.8 µM
[7]
  TGI: > 100 µM
[57]
  TGI: > 70.6 µM
[8]
  TGI: > 50.2 µM
[9]
  TGI: > 100 µM
[10]
  TGI: 30.3 µM
[11]
  TGI: > 100 µM
[12]
  TGI: > 100 µM
[13]
  TGI: > 100 µM
[14]
  TGI: > 100 µM
[15]
  TGI: > 50 µM
[58]
  TGI: > 100 µM
[16]
  TGI: > 100 µM
[17]
  TGI: > 93.2 µM
[19]
  TGI: > 100 µM
[59]
  TGI: > 41.4 µM
[20]
  TGI: > 100 µM
[21]
  TGI: > 57.4 µM
[22]
  TGI: > 59.2 µM
[23]
  TGI: > 95.7 µM
[24]
  TGI: > 82.4 µM
[25]
  TGI: 39.9 µM
[29]
  TGI: > 100 µM
[60]
  TGI: 47.2 µM
[61]
  TGI: > 100 µM
[30]
  TGI: > 100 µM
[31]
  TGI: 27.1 µM
[32]
  TGI: > 100 µM
[33]
  TGI: > 54.2 µM
[34]
  TGI: > 55.5 µM
[62]
  TGI: > 73.4 µM
[35]
  TGI: > 100 µM
[63]
  TGI: > 100 µM
[36]
  TGI: > 88.4 µM
[37]
  TGI: > 100 µM
[64]
  TGI: > 31.6 µM
[38]
  TGI: > 68.4 µM
[39]
  TGI: > 96.4 µM
[40]
  TGI: > 51 µM
[41]
  TGI: > 55.8 µM
[42]
  TGI: > 61.9 µM
[65]
  TGI: > 100 µM
[43]
  TGI: > 64.7 µM
[66]
  TGI: > 83.7 µM
[44]
  TGI: > 87.5 µM
[45]
  TGI: > 100 µM
[46]
  TGI: 27.1 µM
[47]
  TGI: > 54 µM
[49]
  TGI: 22.2 µM
[50]
  TGI: > 100 µM
[51]
  TGI: > 100 µM
[67]
  TGI: > 100 µM
[54]
  TGI: > 100 µM
[55]
  TGI: > 100 µM

## O=C1CC(C(O)(C(F)(F)F)C(F)(F)Cl)CCC1C(O)(C(F)(F)F)C(F)(F)Cl (configuration not stated)
[1]
  TGI: > 10 µM
[3]
  TGI: > 10 µM
[4]
  TGI: > 10 µM
[5]
  TGI: > 10 µM
[6]
  TGI: 5.09 µM
[56]
  TGI: > 10 µM
[7]
  TGI: > 10 µM
[57]
  TGI: > 10 µM
[8]
  TGI: > 10 µM
[9]
  TGI: > 10 µM
[10]
  TGI: > 10 µM
[11]
  TGI: > 10 µM
[12]
  TGI: > 10 µM
[13]
  TGI: > 10 µM
[14]
  TGI: > 10 µM
[15]
  TGI: > 10 µM
[58]
  TGI: > 10 µM
[17]
  TGI: > 10 µM
[19]
  TGI: > 10 µM
[59]
  TGI: > 10 µM
[20]
  TGI: > 10 µM
[21]
  TGI: > 10 µM
[22]
  TGI: > 10 µM
[23]
  TGI: > 10 µM
[24]
  TGI: > 10 µM
[25]
  TGI: > 10 µM
[29]
  TGI: > 10 µM
[60]
  TGI: > 10 µM
[61]
  TGI: > 10 µM
[30]
  TGI: > 10 µM
[31]
  TGI: > 10 µM
[32]
  TGI: > 10 µM
[33]
  TGI: > 10 µM
[34]
  TGI: > 10 µM
[62]
  TGI: > 10 µM
[35]
  TGI: > 10 µM
[63]
  TGI: > 10 µM
[36]
  TGI: > 10 µM
[37]
  TGI: > 10 µM
[64]
  TGI: > 10 µM
[38]
  TGI: > 10 µM
[39]
  TGI: > 10 µM
[40]
  TGI: > 10 µM
[41]
  TGI: > 10 µM
[42]
  TGI: > 10 µM
[65]
  TGI: > 10 µM
[43]
  TGI: > 10 µM
[66]
  TGI: > 10 µM
[44]
  TGI: > 10 µM
[45]
  TGI: > 10 µM
[46]
  TGI: > 10 µM
[47]
  TGI: > 10 µM
[49]
  TGI: > 10 µM
[50]
  TGI: > 10 µM
[51]
  TGI: > 10 µM
[67]
  TGI: > 10 µM
[54]
  TGI: > 10 µM
[55]
  TGI: > 10 µM
